Measured values: paper PMC8706998, “Lipid Nanocarriers-Loaded Nanocomposite as a Suitable Platform to Release Antibacterial and Antioxidant Agents for Immediate Dental Implant Placement Restorative Treatment” (Pharmaceutics, 2021)
Where “and” joins values, the source holds several entries; their conditions need not be identical. Equal values may be shown once.

Experiments:
[1] = test system: Staphylococcus aureus ATCC 25923 strain, growing as planktonic cells; test: Kill curve assay; format: cell-based; settings: ca. 0.1 mg/mL CPX (highest amount in BioQ-CPX); data not shown
Description: Kill curve assays were performed to test the antimicrobial efficacy of BioQ-CPX, BioQ, and the Blank CTS matrix against the indicator pathogen Staphylococcus aureus ATCC 25923 strain, growing as planktonic cells. Briefly, a single colony of S. aureus strain was picked up and pre-cultivated (ca. 16 h) at 37 °C with shacking (160 rpm) in tryptone soy broth medium (hereinafter named as TSB; Merck, Milan, Italy). The same medium was solidified by adding 15 g/L of bacteriological agar when needed. Bacterial cells were then inoculated [0.05% v/v corresponding to ca. 5 × 10^5 colony forming units (CFU) per mL of culture] in TSB medium amended with increasing concentrations (i.e., 1, 2.5, and 5 mg/mL) of the above-mentioned samples. The set up bacterial cultures were challenged for 24 h according to the same pre-culturing conditions. The actual number of viable S. aureus CFU/mL—who survived the challenge exerted by BioQ-CPX, BioQ, and Blank matrix—was evaluated through the spot plate count method and compared to unchallenged cultures. The data are reported as average values (n = 3) of the CFU/mL in the logarithmic (Log10) scale with standard deviation (SD).

[2] = CPX release study, dialysis tube method; format: physicochemical; settings: from BioQ-CPX, citrate buffer pH 5.5 + acetic acid, after 1.5 h
Description: (§1) The system was submerged in 15 mL of the same medium; (b) Franz diffusion cells (Permeagear, flat flange joint, 9 mm orifice diameter, 15 mL acceptor volume, SES GmbH-Analysesysteme, Bechenheim, Germany) consisting in a donor chamber filled with 10 mg of powder and soaked with 0.5 mL of citrate buffer pH 5.5, and an acceptor chamber filled with 15 mL of the same medium plus glacial acetic acid 0.01% (v/v). A cellulose dialysis membrane (Medicell Membranes, London, UK: MWCO: 12–14,000 Da) previously soaked with the acceptor fluid, was inserted between the two compartments.
(§2) QRC release studies were carried out using a modified transwell permeable support (0.45 µm) filled with 5 mg of the BioQ-CPX powder and soaked with 0.2 mL of citrate buffer pH 5.5. The entire system was dipped inside a beaker filled with 8 mL of 1-octanol as a suitable acceptor fluid. […] The experiments were carried out at 37 ± 0.5 °C under constant stirring and protected by light exposure while, immediately after sampling, opportune volumes of fresh acceptor fluid were added to maintain the sink conditions. Data are reported as means ± SE (n = 6). Drug release profiles were elaborated using OriginPro 8.5 software and fitted with semi-empirical model equations. Fittings were validated by using R^2 value where a p-value of less than 0.05 was considered statistically significant.

[3] = test system: S. aureus cells growing as a biofilm; test: Biofilm inhibition, crystal violet staining; format: cell-based, Staphylococcus aureus; settings: 5 mg BioQ-CPX in 200 μL culture, CPX at the same concentration as in BioQ-CPX; 24 h, 37 °C
Description: Briefly, pre-cultivated S. aureus cells for 16 h at 37 °C were inoculated (1% v/v corresponding to ca. 1 × 10^7 CFU/mL) in TSB medium. The set-up culture was aliquoted (200 μL) in a 96-well microtiter plate. […] The microtiter plate was then incubated for 24 h at 37 °C under static mode, allowing for bacterial biofilm formation. After the incubation period, bacterial cultures have been disposed, while each well was washed 3 time with 200 μL of sterile physiological (NaCl 0.9% w/v) solution to remove loosely adherent cells. Then, S. aureus biofilms were stained by adding 200 μL of an aqueous crystal violet (0.1% w/v) solution at room temperature for 15 min. Subsequently, wells were washed 5 times with 200 μL of physiological solution to remove the excess of unbound crystal violet and left to dry for 20 min at 65 °C. Finally, crystal violet was solubilized by adding 200 μL of an acetic acid (30% v/v) solution, the absorbance (Abs) being read at 600 nm using a DU-730 Life Science spectrophotometer (Beckman Coulter, Brea, CA, USA). Unchallenged cultures were used as reference biofilms (positive control), while wells containing only the medium utilized in this study were used as a negative control. The percentage of biofilm inhibition was calculated as follows: Biofilm inhibition (%)=(Abs positive control−Abs challenge)/Abs positive control×100

[4] = Ex vivo permeation/penetration experiments in Franz-type cells; format: in vitro ADME, pig; settings: from 30 mg BioQ-CPX
Description: Tissue specimens were obtained from the vestibular area of the retromolar trigone derived from 6–8-month-old pigs supplied by the Municipal Slaughterhouse of Villabate (Palermo, Italy) since withdrawn from animals intended for human consumption. By a refrigerated transport box, the specimens were immediately transferred to the laboratory within 1 h from animal sacrifice and surgically treated to remove both adipose and connective tissues in excess. Afterward, they were dipped for 30 min in a 5% THR (w/v) isotonic solution and then stored at −80 °C for a minimum period of one week. Before the permeation/penetration experiments, tissue samples were accurately washed to remove the cryoprotectant, and, subsequently, thermal shocked to obtain the buccal mucosa. Briefly, tissue samples were dipped for 30 s in a pre-warmed (70 °C) isotonic solution, and then the mucosa was carefully peeled off from the connective tissue, obtaining the heat-separated epithelium along with the intact basal lamina. Finally, it was equilibrated in an isotonic solution for 3 h by replacing the medium every 15 min to remove all the biological matter, which could affect the analysis, before use.
The ex vivo permeation/penetration studies were carried out using vertical Franz-type diffusion cells. Briefly, appropriate sections of buccal mucosa were mounted between the donor and the acceptor chambers filled with 1 mL of citrate buffer pH 5.5 and 15 mL of citrate buffer pH 5.5 amended with acetic acid 0.1% (v/v), Acys 0.002% (w/v), and β-CD 3% (w/v). The whole system was equilibrated at 37 ± 0.5 °C for 30 min. Afterward, the medium was removed from the donor compartment, promptly replaced with 30 mg of BioQ-CPX, and soaked with 0.2 mL of citrate buffer pH 5.5. Every 30 min, aliquots (0.5 mL) were withdrawn from the acceptor chamber and immediately replaced with the same volume of fresh acceptor fluid to maintain the sink conditions. Experiments were carried out at 37 ± 0.5 °C in the dark and under constant stirring, being stopped at different time points ranging from 1 to 6 h. The amount of permeated QRC and CPX were quantified by UV–Vis analysis. Data are reported as means ± SE (n = 6).
Briefly, the mucosa was dipped into 2 mL of methanol and warmed up to 60 °C. The extraction procedure was performed twice, and the collected extraction liquors were transferred into a 10 mL flask and brought to volume with fresh methanol. Thus, QRC and CPX amounts were determined by UV–Vis analysis. Results are reported as means ± SE.

[5] = CPX release study, Franz diffusion cell with cellulose membrane; format: physicochemical; settings: CPX release from BioQ-CPX, data up to 9 h
Description: as §1, §2

O=C(O)c1cn(C2CC2)c2cc(N3CCNCC3)c(F)cc2c1=O [CPX, Ciprofloxacin]
effect on bacterial growth [1]: did prevent bacterial growth
CPX released [2]: 80%
S. aureus biofilm formation inhibition [3]: ca. 55%
maximum amount accumulated into the mucosa ([4]; after 5 h): about 5 % of drugs dose
amount accumulated into the mucosa ([4]; first hour from application): about 4 % of dose
Korsmeyer-Peppas n [5]: 0.8280 ± 0.0125 and 0.8280
Korsmeyer-Peppas with Tlag n [5]: 0.8293
First-Order k ([5]; time in hours): 0.1359
Korsmeyer-Peppas k ([5]; time in hours): 0.1134
Korsmeyer-Peppas with Tlag k ([5]; time in hours): 0.1113
Korsmeyer-Peppas with Tlag: Tlag ([5]; time in hours): −0.031
Zero-Order k ([5]; time in hours): 0.079
